Measured values as given in ChEMBL document CHEMBL1152272, “Inhibitor scaffolds for 2-oxoglutarate-dependent histone lysine demethylases” (J Med Chem, 2008).

Experiments:
[1] = Inhibition of 2-oxoglutarate-dependent human JMJD2E preincubated for 30 mins by FDH coupled assay
[2] = Inhibition of 2-oxoglutarate-dependent human JMJD2E in presence of excess 2-oxoglutarate and 10 uM Fe2 by FDH coupled assay
[3] = Inhibition of 2-oxoglutarate-dependent human JMJD2E in presence of excess H3K9me3 peptide and 10 uM Fe2 by FDH coupled assay
[4] = Inhibition of human collagene prolyl-4-hydroxylase
[5] = Inhibition of 2-oxoglutarate-dependent human JMJD2E in presence of 50 uM Fe by FDH coupled assay
Prolyl hydroxylase EGLN2 = Prolyl hydroxylase EGLN2 (Homo sapiens, UniProt Q96KS0); assay: Inhibition of human recombinant HIF PHD1
[6] = Inhibition of human collagene prolyl-3-hydroxylase
Prolyl hydroxylase EGLN3 = Prolyl hydroxylase EGLN3 (Homo sapiens, UniProt Q9H6Z9); assay: Inhibition of human recombinant HIF PHD3
Egl nine homolog 1 [7] = molecular target: T1, Egl nine homolog 1 (Homo sapiens, UniProt Q9GZT9); assay: Inhibition of 2-oxoglutarate-dependent human recombinant HIF PHD2 preincubated for 1 hr
Egl nine homolog 1 [8] = molecular target: T1, Egl nine homolog 1; assay: Inhibition of human recombinant PHD2
[9] = molecular target: Hypoxia-inducible factor 1-alpha inhibitor (Homo sapiens, UniProt Q9NWT6); assay: Inhibition of human FIH
Chain of Hypoxia-inducible factor 1-alpha inhibitor (Q9NWT6 whole entry): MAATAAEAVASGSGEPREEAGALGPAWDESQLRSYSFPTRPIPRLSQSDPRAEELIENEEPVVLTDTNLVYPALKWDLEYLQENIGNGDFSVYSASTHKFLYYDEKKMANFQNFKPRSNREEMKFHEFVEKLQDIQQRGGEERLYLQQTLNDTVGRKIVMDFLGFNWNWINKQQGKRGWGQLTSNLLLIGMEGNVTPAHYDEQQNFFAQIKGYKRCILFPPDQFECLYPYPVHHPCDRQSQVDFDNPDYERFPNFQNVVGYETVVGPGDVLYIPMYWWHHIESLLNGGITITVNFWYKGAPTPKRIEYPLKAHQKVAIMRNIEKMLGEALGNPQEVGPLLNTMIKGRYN

Chain of Prolyl hydroxylase EGLN3 (Q9H6Z9 whole entry): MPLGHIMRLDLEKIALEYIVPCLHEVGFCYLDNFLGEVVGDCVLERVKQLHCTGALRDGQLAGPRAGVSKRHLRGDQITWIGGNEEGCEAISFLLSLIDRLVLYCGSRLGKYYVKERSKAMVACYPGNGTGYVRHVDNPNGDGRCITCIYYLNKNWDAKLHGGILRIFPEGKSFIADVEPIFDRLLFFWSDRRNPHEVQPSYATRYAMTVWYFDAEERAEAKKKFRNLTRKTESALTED
Chain of Prolyl hydroxylase EGLN2 (Q96KS0 whole entry): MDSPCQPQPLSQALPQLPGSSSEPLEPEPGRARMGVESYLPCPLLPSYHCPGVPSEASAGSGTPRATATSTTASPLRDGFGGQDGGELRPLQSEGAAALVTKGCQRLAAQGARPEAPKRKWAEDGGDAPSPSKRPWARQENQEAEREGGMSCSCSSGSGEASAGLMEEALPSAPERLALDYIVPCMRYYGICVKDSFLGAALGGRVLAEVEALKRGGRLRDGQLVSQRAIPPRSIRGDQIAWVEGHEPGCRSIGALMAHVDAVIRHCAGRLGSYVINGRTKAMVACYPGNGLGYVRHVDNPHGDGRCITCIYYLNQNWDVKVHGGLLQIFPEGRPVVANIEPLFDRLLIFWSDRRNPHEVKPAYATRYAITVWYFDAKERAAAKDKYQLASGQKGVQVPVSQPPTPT
T1 sequence (Q9GZT9 whole entry): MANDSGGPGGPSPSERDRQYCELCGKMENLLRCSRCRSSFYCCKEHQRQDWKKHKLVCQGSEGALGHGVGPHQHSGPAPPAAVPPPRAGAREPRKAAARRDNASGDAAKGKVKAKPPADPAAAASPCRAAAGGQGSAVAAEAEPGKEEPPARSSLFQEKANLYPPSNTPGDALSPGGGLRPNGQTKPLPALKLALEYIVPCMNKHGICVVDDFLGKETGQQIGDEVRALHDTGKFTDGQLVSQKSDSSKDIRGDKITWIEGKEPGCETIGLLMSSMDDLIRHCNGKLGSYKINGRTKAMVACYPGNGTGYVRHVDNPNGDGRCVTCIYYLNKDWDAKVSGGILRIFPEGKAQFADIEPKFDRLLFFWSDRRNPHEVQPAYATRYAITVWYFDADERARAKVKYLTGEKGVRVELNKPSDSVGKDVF

IC50 [2] [µM] | IC50 [3] [µM] | SMILES | further results
> 10000 | 710 | O=C(O)CCC(=O)O [SUCCINIC ACID] | IC50 [1]: 320 µM
4.7 | – | O=C(O)c1ccnc(C(=O)O)c1 | Ki [4]: 2 µM; IC50 [5]: 1.8 µM; Ki (Prolyl hydroxylase EGLN2): 7 µM; Ki [6]: 9 µM; Ki (Prolyl hydroxylase EGLN3): 7 µM
> 10000 | > 10000 | CCCC(=O)O [BUTYRIC ACID] | –
250 | 120 | O=C(O)c1cccc(C(=O)O)n1 [DIPICOLINIC ACID] | IC50 [5]: 120 µM
300 | 28 | O=C(NO)c1cccc(O)c1 | IC50 [1]: 4.8 µM; IC50 [5]: 19 µM
270 | 100 | O=C(O)C(=O)N[C@H](CCc1ccccc1)C(=O)O | IC50 [1]: 39 µM
> 10000 | > 5000 | O=C(O)c1cccnc1C(=O)O [QUINOLINIC ACID] | –
– | – | CC(/C=C/C(=O)NO)=C\[C@@H](C)C(=O)c1ccc(N(C)C)cc1 [TRICHOSTATIN] | IC50 [1]: 28 µM
590 | – | O=C(O)C(=O)N[C@H](Cc1ccccc1)C(=O)O | –
> 10000 | 1600 | O=C(O)/C=C/C(=O)O [FUMARIC ACID] | IC50 [1]: 2300 µM; IC50 (Egl nine homolog 1 [7]): 3 µM
300 | 230 | COc1ccc(O)cc1C(=O)NO | IC50 [5]: 160 µM
1900 | 180 | O=C(O)c1ccc(C(=O)O)nc1 [PYRIDINE-2,5-DICARBOXYLIC ACID] | Ki (Egl nine homolog 1 [8]): > 300 µM; Ki [4]: 0.8 µM; Ki (Prolyl hydroxylase EGLN2): > 300 µM; Ki [6]: > 1000 µM; Ki (Prolyl hydroxylase EGLN3): > 300 µM
> 10000 | > 10000 | O=C(O)c1ccncc1C(=O)O | –
> 10000 | > 10000 | O=C(O)c1cncc(C(=O)O)c1 | –
– | – | O=C(O)CNC(=O)C(=O)O [N-OXALYLGLYCINE] | Ki [9]: 1200 µM
340 | 360 | O=C(NO)c1cc(O)ccc1Oc1ccccc1 | –
73 | 27 | O=C(O)c1cc(C(=O)O)ncn1 | –
